Laboratory results: BigSolDB 2.1

O=C(O)c1cc([N+](=O)[O-])cc([N+](=O)[O-])c1
solubility (mole fraction)
Details | 283.15 K | 288.15 K | 293.15 K | 298.15 K | 303.15 K | 308.15 K | 313.15 K | 318.15 K | 323.15 K
in acetonitrile | 0.00815 | 0.00958 | 0.011 | 0.0129 | 0.0148 | 0.0162 | 0.019 | 0.0218 | 0.0236
in ethanol | 0.0264 | 0.0306 | 0.0346 | 0.0396 | 0.0456 | 0.0524 | 0.0593 | 0.07 | 0.078
in ethyl acetate | 0.0349 | 0.0373 | 0.0399 | 0.0426 | 0.0458 | 0.0495 | 0.0533 | 0.0574 | 0.0627
in isobutanol | 0.00648 | 0.00862 | 0.0129 | 0.0171 | 0.0223 | 0.0265 | 0.031 | 0.0376 | 0.0466
in isopropanol | 0.014 | 0.0167 | 0.0194 | 0.0255 | 0.0315 | 0.0381 | 0.0459 | 0.0548 | 0.0661
in methanol | 0.0321 | 0.0399 | 0.0454 | 0.0502 | 0.059 | 0.0669 | 0.0767 | 0.0843 | 0.0943
in methyl acetate | 0.0378 | 0.0413 | 0.0456 | 0.0498 | 0.054 | 0.0582 | 0.0623 | 0.0664 | 0.0713
in n-butanol | 0.0138 | 0.0163 | 0.0214 | 0.0273 | 0.0329 | 0.0386 | 0.0458 | 0.0537 | 0.0622
in n-butyl acetate | 0.0257 | 0.0262 | 0.0281 | 0.0327 | 0.0341 | 0.04 | 0.0451 | 0.0504 | 0.0562
in n-pentanol | 0.0153 | 0.0173 | 0.0223 | 0.0273 | 0.0321 | 0.0379 | 0.0456 | 0.0531 | 0.0604
in n-propanol | 0.0173 | 0.019 | 0.0224 | 0.0274 | 0.0332 | 0.0397 | 0.0457 | 0.0549 | 0.065
in n-propyl acetate | 0.0281 | 0.0296 | 0.0318 | 0.0354 | 0.04 | 0.0443 | 0.0494 | 0.0548 | 0.0609
in sec-butanol | 0.0139 | 0.0159 | 0.0201 | 0.0263 | 0.0324 | 0.0414 | 0.0503 | 0.0628 | 0.0777
